≈ marks a conversion by molar mass, not a printed value.

A short description of data set [1]: aqueous solubility as stated for drugs and organic acids.

Turning to `O=C(N[C@@H](Cc1ccccc1)[C@@H](O)C(=O)N1C[C@@H](O)[C@@H](O)C1)c1cc2cc(Cl)ccc2[nH]1` [Drug 4, 5-chloro-1H-indole-2-carboxylic acid [(1S)-benzyl-3-((3R,4S)-dihydroxypyrrolidin-1-yl-)-(2R)-hydroxy-3-oxypropyl]amide], the water solubility in data set [1] (water) turned out to be 80 µg/mL (≈ 175 µM). For the compound `NC(=O)N1C(=O)/C(=C(\O)c2cccs2)c2cc(Cl)ccc21` [Drug 7, Tenidap], the solubility in “physchem” (pH 3.7, aqueous buffer) stood at 2 µg/mL (≈ 6.24 µM); in “physchem” (pH 7.4, aqueous buffer), 200 µg/mL (≈ 624 µM). Turning to `CCCc1nn(C)c2c(=O)[nH]c(-c3cc(S(=O)(=O)N4CCN(C)CC4)ccc3OCC)nc12` [Drug 1, 1-[4-ethoxy-3-(6,7-dihydro-1-methyl-7-oxo-3-propyl-1H-pyrazolo[4,3-d]pyrimidin-5-yl)phenylsulphony]-4-methylpiperazine], the solubility in data set [1] (pH 6, aqueous buffer) is about 20 µg/mL (≈ 42.1 µM).

Take “4-[3-[4-(2-methylimidazol-1-yl)phenylthio]phenyl]-3,4,5,6-tetrahydro-2H-pyran-4-carboxamide hemifumarate [Drug 3]”: the solubility in data set [1] (pH 4) came out at 3.7 mgA/mL. In turn, `CC(C(=O)O)c1ccc2c(c1)[nH]c1ccc(Cl)cc12` (stereo not shown) [Drug 6, carprofen] showed a solubility in data set [1] (pH 5.9, aqueous buffer) of about 15 µg/mL (≈ 54.8 µM). Compound `O=C1Cc2cc(CCN3CCN(c4nsc5ccccc45)CC3)c(Cl)cc2N1` [Drug 5] had a solubility in data set [1] (model fasted duodenal solution) of 3 µg/mL (≈ 7.26 µM).
